Source: US20080090734A1, “DRUG SCREENING AND TARGET IDENTIFICATION USING SPR IMAGING OF TARGET PROTEIN ARRAYS” (The Trustees of California State University, priority 2006, published 2008)

Tests used:
Assay in all cases: Antibiotic susceptibility profile
Format in all cases: cell-based, Acinetobacter baumannii
Design in all cases: key: Resistance; Intermediate; Susceptible
[1] = test system: A. baumannii clinical isolate LAC 01
From the text: (§1) We obtained over thirty clinical isolates of A. baumannii from nosocomial infections in New York City and Los Angeles. […] Only antibiotics with breakpoints for A. baumannii were used. […] Isolates LA 01 to 20 were acquired from Los Angels County while NY-A to NY-H were obtained from New York City.
(§2) Antibiotic susceptibility profiles of clinical isolates of A. baumannii and reference strains. R, I, and S denote Resistance, Intermediate and Susceptible, respectively. Genetic Profiling of Clinical Isolates of A. baumannii

[2] = test system: A. baumannii clinical isolate LAC 02
From the text: as §1, §2

[3] = test system: A. baumannii clinical isolate LAC 03
From the text: as §1, §2

[4] = test system: A. baumannii clinical isolate LAC 04
From the text: as §1, §2

[5] = test system: A. baumannii clinical isolate LAC 05
From the text: as §1, §2

[6] = test system: A. baumannii clinical isolate LAC 06
From the text: as §1, §2

[7] = test system: A. baumannii clinical isolate LAC 07
From the text: as §1, §2

[8] = test system: A. baumannii clinical isolate LAC 08
From the text: as §1, §2

[9] = test system: A. baumannii clinical isolate LAC 09
From the text: as §1, §2

[10] = test system: A. baumannii clinical isolate LAC 10
From the text: as §1, §2

[11] = test system: A. baumannii clinical isolate LAC 11
From the text: as §1, §2

[12] = test system: A. baumannii clinical isolate LAC 12
From the text: as §1, §2

[13] = test system: A. baumannii clinical isolate LAC 13
From the text: as §1, §2

[14] = test system: A. baumannii clinical isolate LAC 14
From the text: as §1, §2

[15] = test system: A. baumannii clinical isolate LAC 15
From the text: as §1, §2

[16] = test system: A. baumannii clinical isolate LAC 16
From the text: as §1, §2

[17] = test system: A. baumannii clinical isolate LAC 17
From the text: as §1, §2

[18] = test system: A. baumannii clinical isolate LAC 18
From the text: as §1, §2

[19] = test system: A. baumannii clinical isolate LAC 19
From the text: as §1, §2

[20] = test system: A. baumannii clinical isolate LAC 20
From the text: as §1, §2

[21] = test system: A. baumannii clinical isolate NY A
From the text: as §1, §2

[22] = test system: A. baumannii clinical isolate NY B
From the text: as §1, §2

[23] = test system: A. baumannii clinical isolate NY C
From the text: as §1, §2

[24] = test system: A. baumannii clinical isolate NY D
From the text: as §1, §2

[25] = test system: A. baumannii clinical isolate NY E
From the text: as §1, §2

[26] = test system: A. baumannii clinical isolate NY F
From the text: as §1, §2

[27] = test system: A. baumannii clinical isolate NY G
From the text: as §1, §2

[28] = test system: A. baumannii clinical isolate NY H
From the text: as §1, §2

[29] = test system: A. baumannii reference strain 15839; settings: strain 15839 (ATCC)
From the text: as §1, §2

[30] = test system: A. baumannii reference strain 17978; settings: strain 17978 (ATCC)
From the text: as §1, §2

[31] = test system: A. baumannii reference strain 19606; settings: strain 19606 (ATCC)
From the text: as §1, §2

[32] = test system: A. baumannii reference strain AYE
From the text: as §1, §2

[33] = test system: A. baumannii reference strain SDF
From the text: as §1, §2

Compound | Antibiotic susceptibility [1] | Antibiotic susceptibility [2] | Antibiotic susceptibility [3] | Antibiotic susceptibility [4] | Antibiotic susceptibility [5] | Antibiotic susceptibility [6] | Antibiotic susceptibility [7] | Antibiotic susceptibility [8] | Antibiotic susceptibility [9] | Antibiotic susceptibility [10] | Antibiotic susceptibility [11] | Antibiotic susceptibility [12] | Antibiotic susceptibility [13] | Antibiotic susceptibility [14] | Antibiotic susceptibility [15] | Antibiotic susceptibility [16] | Antibiotic susceptibility [17] | Antibiotic susceptibility [18] | Antibiotic susceptibility [19] | Antibiotic susceptibility [20] | also measured
CCN1CCN(C(=O)N[C@@H](C(=O)N[C@@H]2C(=O)N3[C@@H]2SC(C)(C)[C@@H]3C(=O)O)c2ccccc2)C(=O)C1=O [PIP, Piperacillin] | R | R | R | R | I | S | R | I | R | R | R | R | R | R | R | R | R | R | R | R | Antibiotic susceptibility [21]: R; Antibiotic susceptibility [22]: R; Antibiotic susceptibility [23]: R; Antibiotic susceptibility [24]: R; Antibiotic susceptibility [25]: R; Antibiotic susceptibility [26]: R; Antibiotic susceptibility [27]: R; Antibiotic susceptibility [28]: R; Antibiotic susceptibility [29]: I; Antibiotic susceptibility [30]: S; Antibiotic susceptibility [31]: I; Antibiotic susceptibility [32]: R; Antibiotic susceptibility [33]: R
C[C@@H](O)[C@H]1C(=O)N2C(C(=O)O)=C(S[C@@H]3CN[C@H](C(=O)N(C)C)C3)[C@H](C)[C@H]12 [MEM, Meropenem] | R | R | I | S | S | S | R | S | R | R | R | S | S | S | R | S | S | S | R | I | Antibiotic susceptibility [21]: R; Antibiotic susceptibility [22]: R; Antibiotic susceptibility [23]: R; Antibiotic susceptibility [24]: R; Antibiotic susceptibility [25]: R; Antibiotic susceptibility [26]: R; Antibiotic susceptibility [27]: R; Antibiotic susceptibility [28]: R; Antibiotic susceptibility [29]: S; Antibiotic susceptibility [30]: S; Antibiotic susceptibility [31]: S; Antibiotic susceptibility [32]: S; Antibiotic susceptibility [33]: S
CO/N=C(\C(=O)N[C@@H]1C(=O)N2C(C(=O)O)=C(COC(C)=O)CS[C@H]12)c1csc(N)n1 [CTX, Cefotaxime] | R | R | R | R | I | R | R | I | R | R | R | R | R | R | R | R | R | R | R | R | Antibiotic susceptibility [21]: R; Antibiotic susceptibility [22]: R; Antibiotic susceptibility [23]: R; Antibiotic susceptibility [24]: R; Antibiotic susceptibility [25]: R; Antibiotic susceptibility [26]: R; Antibiotic susceptibility [27]: R; Antibiotic susceptibility [28]: R; Antibiotic susceptibility [29]: R; Antibiotic susceptibility [30]: S; Antibiotic susceptibility [31]: I; Antibiotic susceptibility [32]: R; Antibiotic susceptibility [33]: S
C[C@H]1c2cccc(O)c2C(=O)C2=C(O)[C@]3(O)C(=O)C(C(N)=O)=C(O)[C@@H](N(C)C)[C@@H]3[C@@H](O)[C@@H]21 [DOX, Doxycycline] | S | S | S | S | S | S | S | S | S | S | R | R | R | R | S | S | S | S | S | S | Antibiotic susceptibility [21]: S; Antibiotic susceptibility [22]: R; Antibiotic susceptibility [23]: S; Antibiotic susceptibility [24]: S; Antibiotic susceptibility [25]: R; Antibiotic susceptibility [26]: S; Antibiotic susceptibility [27]: R; Antibiotic susceptibility [28]: S; Antibiotic susceptibility [29]: R; Antibiotic susceptibility [30]: S; Antibiotic susceptibility [31]: S; Antibiotic susceptibility [32]: S; Antibiotic susceptibility [33]: S
